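Assay format: 96-well plates, 48-hour exposure. GI50 is the concentration that inhibits growth by half. TGI marks complete inhibition of growth.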
Key:
Experiment in all cases: NCI tumour cell line growth inhibition, 48 h
OVCAR-5 ovarian = system: OVCAR-5 ovarian
HCT-15 colon = system: HCT-15 colon
MDA-MB-435 = system: MDA-MB-435
SNB-75 CNS = system: SNB-75 CNS
OVCAR-8 ovarian = system: OVCAR-8 ovarian
HL-60(TB) leukemia = system: HL-60(TB) leukemia
SF-539 CNS = system: SF-539 CNS
HOP-62 NSCLC = system: HOP-62 NSCLC

Row | Compound | GI50 (OVCAR-5 ovarian) [µM] | TGI (OVCAR-5 ovarian) [µM] | GI50 (HCT-15 colon) [µM] | TGI (HCT-15 colon) [µM] | GI50 (MDA-MB-435) [µM] | TGI (MDA-MB-435) [µM] | GI50 (SNB-75 CNS) [µM] | TGI (SNB-75 CNS) [µM] | GI50 (OVCAR-8 ovarian) [µM] | TGI (OVCAR-8 ovarian) [µM] | GI50 (HL-60(TB) leukemia) [µM] | TGI (HL-60(TB) leukemia) [µM] | GI50 (SF-539 CNS) [µM] | TGI (SF-539 CNS) [µM] | GI50 (HOP-62 NSCLC) [µM] | TGI (HOP-62 NSCLC) [µM]
1 | COc1ncnc2c(-c3ccccc3)cn(COCc3ccccc3)c12 | 47.8 | > 100 | 2.48 | > 100 | 2 | 6.13 | 4.03 | > 100 | 3.02 | 11.7 | 3.22 | 18.1 | 11.8 | > 100 | 5.78 | 87.6
2 | C/C=C(\C)C(=O)NC1=CC[C@@]2(C)C(=CCC3C2CC[C@@]2(C)C3CC[C@@H]2C(C)N(C)C)C1=O (stereo partly specified) | 4.78 | 25.4 | 1.54 | 4.65 | 2.35 | 7.08 | 5.22 | 28.4 | 10.1 | > 77.9 | 1.42 | 5.2 | 1.62 | 3.22 | 2.08 | 5.51
3 | CCOC(=O)/C(C=Nc1ccc(-c2nc3ccccc3[nH]2)cc1)=C(/C)O | 17.1 | 36.3 | 10.1 | 24.4 | 14.9 | 43.4 |  |  | 8.78 | 17.7 | 18.5 | 44 |  |  | 19.7 | > 50
4 | OC(Cc1ccncc1)C(Cl)(Cl)Cl (stereo unspecified) | > 100 | > 100 | > 100 | > 100 | > 100 | > 100 | > 100 | > 100 | > 100 | > 100 | 0.152 | 60.1 | > 100 | > 100 | > 100 | > 100
5 | CC1(C)C2CCC13C(=O)C1OC3(C2)C2C(=O)c3cc4ccccc4cc3C(=O)C12 (stereo unspecified) | 18.4 | > 100 | 9.28 | 68.8 | 8.58 | > 100 | 54.5 | > 100 | 33.8 | > 100 | 4.89 | 26.7 | 40.1 | 72 | 7.64 | 45.3
6 | Cc1cccc(/C=C/c2c(C(=O)/C=C/c3ccccc3)c(C)nc3ccccc23)c1 | 1.98 | 3.56 | 1.26 | 3.57 | 1.81 | 4.29 | 1.42 | 2.95 |  |  | 1.83 | 4.34 | 1.71 | 3.12 | 1.75 | 3.48
7 | COc1cc(C(O)CCBr)c(OC)cc1C (stereo unspecified) |  | > 100 |  | > 100 |  | > 42.6 |  | > 100 |  | > 46.8 |  | > 100 |  | 31.3 |  | > 93.5
8 | N#Cc1ccc(OCc2nc(N)nc(N)c2-c2ccc(Cl)c(Cl)c2)cc1 | 2.38 | > 100 | 0.525 | > 100 | 0.629 | > 100 | 2.74 | 29.1 | 0.621 | 54.5 | 0.554 | 24.4 | 0.802 | 37.5 | 5.21 | > 100
9 | Cc1c[n+](=O)c2ccccc2n1[O-] |  | > 100 |  | > 100 |  | > 100 |  | > 100 |  | > 100 |  |  |  | > 100 |  | > 100
10 | COC12C=C/C(=C(/C(=O)OCc3cncnc3)C(=O)CCCCCCCCC3(OC)C=C/C(=C(/C(=O)OCc4cncnc4)C(=O)CCCCCCCC1)O3)O2 | 0.783 | 2.03 | 0.308 | 1.34 | 0.099 | 0.208 | 1.19 | 6.84 | 0.207 | > 50 | 0.387 | 2.82 | 0.952 | 2.47 | 0.624 | 2.97
11 | CC(C)Cn1cnc2c(SCc3ccc(Cl)cc3Cl)nc(N)nc21 |  | > 100 |  | > 100 |  | > 100 |  | > 100 |  | 93.3 |  |  |  | 36.5 |  | > 100
12 | COc1cc(/C=C\c2cc(OC)c(OC)c(OC)c2)cc(NC(=O)/C=C/c2cc(OC)c(OC)c(OC)c2)c1OC | > 100 | > 100 | 5.51 | > 100 | 1.54 | 4.84 | 1.82 | > 100 | 6.68 | > 100 | 0.509 | 4.46 | 7.58 | > 100 | 7.21 | > 100
13 | Clc1nc(Cl)c2ncn(CC3(Cn4cnc5c(Cl)nc(Cl)nc54)COC3)c2n1 | 0.634 | 1.2 | 0.178 | 0.361 | 0.234 | 0.613 | 0.201 | 0.395 | 0.256 | 0.532 | 0.354 | 2.78 | 1.24 | 2.55 | 0.221 | 0.426
14 | N=C1C(c2nc3ccccc3s2)=C(O)CN1c1ccc(F)c(Cl)c1 | 35.9 | > 100 | 0.999 | > 100 | 61.9 | > 100 | 13 | 51.4 | 12.6 | 33.4 | > 100 | > 100 | 8.36 | 30.9 | 18.1 | 36.2
15 | C=CCN=c1sc2c(n1NC(=O)c1cc3ccc1CCc1ccc(cc1)CC3)C(=O)c1ccccc1C2=O | 2.03 | 4.38 | 1.52 | 3.5 | 0.194 | 0.363 | 0.843 | 2.77 | 2.13 | 11.2 | 0.395 | 3.26 | 1.69 | 3.12 | 1.96 | 4.85
16 | CN1CCC2(CC1)ONC1=NCCN12 |  |  | 24.1 | > 100 | 80.6 | > 100 | 66.8 | > 100 |  | 12.9 |  |  | 47.5 | > 100 | 52.9 | > 100
17 | O=C(Nc1ccc([As](=O)(O)O)cc1)Nc1cccc(Cl)c1Cl |  | > 100 |  | > 100 |  | > 100 |  | 65.4 |  | > 100 |  | > 100 |  | > 100 |  | > 100

Row | Compound | GI50 (OVCAR-5 ovarian) [µM] | TGI (OVCAR-5 ovarian) [µM] | GI50 (HCT-15 colon) [µM] | TGI (HCT-15 colon) [µM] | GI50 (MDA-MB-435) [µM] | TGI (MDA-MB-435) [µM] | GI50 (SNB-75 CNS) [µM] | TGI (SNB-75 CNS) [µM] | GI50 (OVCAR-8 ovarian) [µM] | TGI (OVCAR-8 ovarian) [µM] | GI50 (HL-60(TB) leukemia) [µM] | TGI (HL-60(TB) leukemia) [µM] | GI50 (SF-539 CNS) [µM] | TGI (SF-539 CNS) [µM] | GI50 (HOP-62 NSCLC) [µM] | TGI (HOP-62 NSCLC) [µM]
18 | CC(=O)NC1C(OC[C@@H](CC(=O)N[C@@H](CC(=O)O)CC(=O)N[C@H](CC(=O)N[C@@H](CCCN)CC(=O)N[C@@H](CCCN)CC(=O)N[C@H](CC(N)=O)C(C)C)C(C)C)NC(=O)C[C@@H](N)C(C)C)OC(CO)C(O)C1O (stereo partly specified) | > 100 | > 100 | > 100 | > 100 | > 100 | > 100 | > 100 | > 100 | > 100 | > 100 | > 100 | > 100 | > 100 | > 100 | > 100 | > 100
19 | C=C1C(=O)O[C@H]2[C@H]1CC/C(CNC(=O)/C=C/c1cc(OC)c(OC)c(OC)c1)=C\CC[C@@]1(C)O[C@@H]21 | 2.44 | 12.9 | 2.96 | 13.5 | 2.33 | 13.5 | 2.93 | 22.9 | 4.09 | 16.1 | 0.925 | 3.3 | 2 | 5.93 | 5.29 | 21.9
20 | CCCCON(OC(=O)c1ccc2ccccc2c1)C(=O)c1ccccc1 | > 100 | > 100 | > 100 | > 100 | > 100 | > 100 | 86.2 | > 100 | > 100 | > 100 | 91 | > 100 | > 100 | > 100 | > 100 | > 100
21 | C[C@]12CC[C@@H]3c4ccc(OC(=O)N(CCCl)CCCl)cc4CC[C@H]3[C@@H]1CC[C@@H]2O | 9.98 |  | 0.875 |  | 0.354 | 6.15 | 2.48 | 15.1 | 3.85 |  | 0.731 |  | 1.69 | 4.27 | 2.44 | 
22 | CCOC(=O)c1c(C)nc2c(c1N)CC(=O)N2Cc1ccc(OC)cc1 | > 100 | > 100 |  |  | > 100 | > 100 | 3.4 | 25.8 | 5.42 | > 100 | > 100 | > 100 | 7.03 | > 100 | 2.1 | 5.97
23 | C=C(CN1C(=O)CN(C)C1=O)c1ccc(C(=O)Nc2ccccc2N)cc1 | 3.56 | 85.2 | 40.9 | > 100 | 11.3 | 54.1 | 5.87 | 57.6 | 6.78 | > 100 | 4.93 | 61.1 | 36.2 | > 100 | 17.6 | > 100
24 | COc1cccc(N2CCN(CC(=O)N3CCN(c4nnc(-c5ccc(Cl)cc5)c(-c5ccc(Cl)cc5)n4)CC3)CC2)c1 | > 100 | > 100 | 8.35 | > 100 | 9.26 | > 100 | 19 | 52.9 | 29.4 | > 100 | 3.84 | > 100 | 11.5 | 90.7 | 32.1 | > 100
25 | COc1ccc(-c2nn(-c3cccc(Cl)c3)cc2-c2cc(-c3cccs3)[nH]c(=S)n2)cc1 | 6.38 | > 100 | 3.69 | > 100 | 3.13 | 19 | 3.49 | 25.6 | 3.15 | > 100 | 3.49 | 13.2 | 4.7 | 19.7 | 7.14 | 22.1
26 | CCN(Cc1cc(Nc2nc(C)cn3c(-c4cn[nH]c4)cnc23)sn1)C(C)(C)CO | 0.0676 | 10.7 | 0.0746 | 11.4 | 0.0826 | 1.31 | 0.0107 | 0.0365 | 0.0411 | 11 |  |  | 0.0179 | 0.118 | 0.0411 | 0.688
27 | COC(=O)c1ccc(-c2nc3cc(Cl)c(Cl)cc3nc2C#N)cc1 |  |  | > 100 | > 100 | > 100 | > 100 | > 100 | > 100 | > 100 | > 100 |  |  | > 100 | > 100 | 82.4 | > 100
28 | COc1ccc(-c2cc3c(c4cc(OC)ccc24)C(=O)OC3=O)cc1 |  | > 100 |  | > 100 |  | > 100 |  | > 100 |  | > 100 |  | > 100 |  |  |  | > 100
29 | CNC(=O)Nc1nc2ccc([N+](=O)[O-])cc2[nH]1 |  | > 100 |  | > 100 |  | > 100 |  |  |  | > 100 |  | > 100 |  | > 100 |  | > 100
30 | COc1ccc(/C=C/C(=O)c2cc(OC)c(OC)c(OC)c2)cc1OCc1cn(Cc2ccc(F)cc2)nn1 | 3.22 | > 100 | 2.04 | > 100 | 2.78 | > 100 |  |  | 2.58 | 31.5 | 3.31 | 9.07 | 2.49 | 7.83 | 2.14 | 6.18
31 | CC[C@@H]1c2c(C#N)ncn2-c2cnc(Nc3ccc(C(=O)NC4CCN(C5CCN(CC6CC6)CC5)CC4)cc3OC)nc2N1C1CCCC1 | 0.0449 | 1.39 | 0.379 | 1.44 |  |  | 0.0452 | 1.26 |  |  | 0.0249 | 0.104 | 0.0493 | 0.888 | 0.0403 | 1.79
32 | O=C(c1ccccc1)c1ccccc1-c1ccccc1 | 14.6 | > 100 | 2.74 | > 100 | 0.325 | 7.87 | 2.11 | 19.8 | 4.77 | 52.4 |  |  | 3.06 | 15.3 | 5.38 | > 100
33 | O=C1C(Cl)=C(Nc2cccc(F)c2)C(=O)N1Cc1ccc(Cl)cc1 | 4.58 | 22.4 | 0.398 |  | 0.665 | 2.3 | 0.438 | 7.63 | 0.759 | 8.83 |  |  | 1.03 | 4.04 | 0.974 | 7.19

From PubChem BioAssay (NCI)
